Values quoted from earlier work as cited in patent US20190279737A1, “METHOD OF DISCOVERING NEW DRUG CANDIDATE TARGETING DISORDER-TO-ORDER TRANSITION REGION AND APPARATUS FOR DISCOVERING NEW DRUG CANDIDATE” (INDUSTRY-UNIVERSITY COOPERATION FOUNDATION HANYANG …, priority 2016, published 2019).

Target: Myc (Homo sapiens, UniProt P01106)
Conditions: Follis et al. 2008

Chain of Myc (P01106 16-454, species assumed): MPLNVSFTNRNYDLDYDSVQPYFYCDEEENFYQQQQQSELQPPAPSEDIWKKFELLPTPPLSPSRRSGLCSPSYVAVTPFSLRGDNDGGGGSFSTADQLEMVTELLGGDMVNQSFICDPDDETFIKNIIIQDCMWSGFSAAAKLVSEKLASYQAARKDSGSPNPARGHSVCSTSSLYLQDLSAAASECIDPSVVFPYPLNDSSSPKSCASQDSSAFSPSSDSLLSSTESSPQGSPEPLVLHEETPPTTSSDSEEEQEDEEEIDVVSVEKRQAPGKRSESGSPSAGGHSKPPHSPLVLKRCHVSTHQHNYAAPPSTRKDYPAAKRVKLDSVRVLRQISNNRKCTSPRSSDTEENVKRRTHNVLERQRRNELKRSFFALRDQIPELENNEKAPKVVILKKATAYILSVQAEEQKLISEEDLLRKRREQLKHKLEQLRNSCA

SMILES: CCc1ccc(/C=C2/SC(=S)NC2=O)cc1 [10058-F4]
- region of Myc bound: specifically binds to a 402-412 region of Myc
